Experiment [1] addresses NAMPT (Homo sapiens, UniProt P43490). As to the kind of experiment: NAMPT enzyme activity assay coupled with NMNAT1 and ADH (NADH fluorescence). Particulars: AUC of dose-response curve (0.1, 0.3, 1, 3, 10 μM) relative to AUC of NAT (NAT = 1); 1 μM NAMPT, 200 μM NAM.
Procedure: The NAMPT enzyme activity was assayed by a method coupled with the three enzymes: NAMPT, NMNAT1 and alcohol dehydrogenase (ADH). NAMPT synthesizes NMN from NAM and PRPP, NMNAT1 synthesizes NAD from NMN produced in the first step, and ADH converts NAD into detectable fluorescent NADH. […] The reaction was initiated by adding 200 μM nicotinamide (NAM) and mixing gently. The enzyme activity of NAMPT was expressed as the concentration of NADH generated per minute (the molar value was equal to NAD). The relative enzyme activity of NAMPT in each compound-treated group was normalized by the value of the DMSO-treated group, and a dose-response curve was drawn to evaluate the effect of individual compounds on NAMPT enzyme activity. The area under the dose-response curve (AUC, area under curve) was then calculated for individual compound and compared to the AUC of NAT, so that the obtained relative value quantitative Eauc represented the enzyme activation activity of each compound, and the specific calculation formula was shown in FIG. 3.
The test system of experiment [2] is cell death induced by the NAMPT inhibitor FK866. Kind of experiment: Protection against cell death induced by the NAMPT inhibitor FK866 (Celltiter-Glo, cellular ATP). It is filed as cell-based. Particulars: for Relative cytoprotective activity: AUC of dose-response curve (0.1-10 μM) relative to AUC of NAT, 10 nM FK866, 72 hours, cell viability by ATP. The procedure: In the latter cell-based assay, we determined the degree of protection of NAT and derivatives thereof against the NAMPT inhibitor FK866. […] After 72 hours, Celltiter-Glo (Promega) was used to detect cellular ATP levels to reflect cell viability and normalized to the DMSO group. A dose-response curve was drawn to evaluate the cytoprotective activity of individual compounds against FK866. Then the area under the dose-response curve (AUC, area under curve) of each compound was calculated and compared with the AUC of NAT, so that the obtained relative value quantitatively expressed the cytoprotective activity of each compound.
(ATP-based viability assays read luminescence as a measure of living cells.)

39 compounds from patent US20240051975A1 (TSINGHUA UNIVERSITY, priority 2020, published 2024) can be followed below.

Chain of NAMPT (P43490 whole entry, species assumed): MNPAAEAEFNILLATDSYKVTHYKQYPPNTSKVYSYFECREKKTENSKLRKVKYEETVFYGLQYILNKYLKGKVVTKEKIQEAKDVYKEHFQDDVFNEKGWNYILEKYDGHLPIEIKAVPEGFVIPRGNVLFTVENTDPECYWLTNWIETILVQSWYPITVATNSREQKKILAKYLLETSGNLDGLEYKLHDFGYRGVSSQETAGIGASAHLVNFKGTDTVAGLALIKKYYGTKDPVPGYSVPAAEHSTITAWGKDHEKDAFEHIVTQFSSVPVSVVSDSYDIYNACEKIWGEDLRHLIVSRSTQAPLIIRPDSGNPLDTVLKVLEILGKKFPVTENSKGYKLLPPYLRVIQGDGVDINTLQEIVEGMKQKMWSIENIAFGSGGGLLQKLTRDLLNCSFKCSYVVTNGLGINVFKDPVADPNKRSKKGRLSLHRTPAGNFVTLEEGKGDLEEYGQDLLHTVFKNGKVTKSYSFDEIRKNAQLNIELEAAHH

With `CC(C)(C)c1cc(C#N)ccc1OCC(=O)Nc1ccc(O)cc1` [Compound 66, 2-(2-(tert-butyl)-4-cyanophenoxy)-N-(4-hydroxyphenyl)acetamide], the “Relative activation of NAMPT activity” value in experiment [1] was 1.2627. For the same compound, the Relative cytoprotective activity in experiment [2] is 1.569.
As to `CC(C)(C)c1cccc(OCC(=O)NCc2ccc(O)cc2)c1` [Compound 22, 2-(3-(tert-butyl)phenoxy)-N-(4-hydroxybenzyl)acetamide], the “Relative activation of NAMPT activity” value in experiment [1] is given as −0.2162. This compound gave a Relative cytoprotective activity in experiment [2] of 0.1187.
Take `CC(C)(C)c1ccccc1OCC(=O)Nc1ccc(O)c(F)c1` [Compound 41, 2-(2-(tert-butyl)phenoxy)-N-(3-fluoro-4-hydroxyphenyl)acetamide]: in experiment [1], the “Relative activation of NAMPT activity” value was 0.1348. The Relative cytoprotective activity in experiment [2] was found to be 0.9588.
In the case of `COC(=O)c1cccc(C(C)(C)C)c1OCC(=O)Nc1ccc(O)cc1` [Compound 65, 3-(tert-butyl)-2-(2-((4-hydroxyphenyl)amino)-2-oxoethoxy)methyl benzoate], the “Relative activation of NAMPT activity” value in experiment [1] was found to be 0.00292. The same compound returned a Relative cytoprotective activity in experiment [2] of 0.1431.
Consider `O=C(COc1ccccc1)Nc1ccc(O)cc1` [Compound 16, N-(4-hydroxyphenyl)-2-phenoxyacetamide], for which the “Relative activation of NAMPT activity” value in experiment [1] came out at 0.0971. This compound also gave a Relative cytoprotective activity in experiment [2] of 0.1684.
With `Cc1ccc(C(C)(C)C)c(OCC(=O)Nc2ccc(O)cc2)c1` [Compound 55, 2-(2-(tert-butyl)-5-methylphenoxy)-N-(4-hydroxyphenyl)acetamide], in experiment [1], the “Relative activation of NAMPT activity” value came to 0.1726. Also, the Relative cytoprotective activity in experiment [2] is listed as 0.6623.
Consider `CC(C)(C)c1cccc(CO)c1OCC(=O)Nc1ccc(O)cc1` [Compound 58, 2-(2-(tert-butyl)-6-(hydroxymethyl)phenoxy)-N-(4-hydroxyphenyl)acetamide], for which the “Relative activation of NAMPT activity” value in experiment [1] is recorded as 0.5159. In experiment [2], this compound showed a Relative cytoprotective activity of 0.8071.
As for `Cc1ccccc1OCC(=O)Nc1ccc(O)cc1` [Compound 15, N-(4-hydroxyphenyl)-2-(o-tolyloxy)acetamide], in experiment [2], the Relative cytoprotective activity is reported as 0.4402.
As for `O=C(COc1ccccc1-c1ccccc1)Nc1ccc(O)cc1` [Compound 17, 2-([1,1′-biphenyl]-2-yloxy)-N-(4-hydroxyphenyl)acetamide], the “Relative activation of NAMPT activity” value in experiment [1] is on record as 0.3353. The Relative cytoprotective activity in experiment [2] was 0.4572.
The matching figures for `CC(C)(C)c1ccc(C(N)=O)cc1OCC(=O)Nc1ccc(O)cc1` [Compound 63]: 2.041 and 1.065.
The matching figures for `CC(C)(C)c1ccccc1OCC(=O)Nc1ccc(O)cc1Cl` [Compound 36, 2-(2-(tert-butyl)phenoxy)-N-(2-chloro-4-hydroxyphenyl)acetamide]: 0.2583 and 0.06922.
In experiment [2], `CC(C)(C)c1cc(F)ccc1OCC(=O)Nc1ccc(O)cc1` [Compound 56, 2-(2-(tert-butyl)-4-fluorophenoxy)-N-(4-hydroxyphenyl)acetamide] came in with a Relative cytoprotective activity of 0.9846.
For `O=C(COc1ccccc1C(F)(F)F)Nc1ccc(O)cc1` [Compound 23, N-(4-hydroxyphenyl)-2-(2-(trifluoromethyl)phenoxy)acetamide], the “Relative activation of NAMPT activity” value in experiment [1] came to 0.2389. Further, in experiment [2], the Relative cytoprotective activity was determined as 0.2337.
Compound `CC(C)(C)c1cccc(C#N)c1OCC(=O)Nc1ccc(O)cc1` [Compound 21, 2-(2-(tert-butyl)-6-cyanophenoxy)-N-(4-hydroxyphenyl)acetamide] registered a Relative cytoprotective activity in experiment [2] of 2.198. Moreover, in experiment [2] (against FK866), the “cytoprotective activity (in words)” value is “significantly improved compared with NAT”.
Regarding `CC(C)(C)c1ccc(OCC(=O)Nc2ccc(O)cc2)cc1` [Compound 14, 2-(4-(tert-butyl)phenoxy)-N-(4-hydroxyphenyl)acetamide], in experiment [1], the “Relative activation of NAMPT activity” value is −0.1236. The same compound showed a Relative cytoprotective activity in experiment [2] of 0.01994.
For `Cc1cc(O)ccc1NC(=O)COc1ccccc1C(C)(C)C` [Compound 43], the “Relative activation of NAMPT activity” value in experiment [1] is given as −0.168.
As for `CC(C)(C)c1ccccc1OCC(=O)Nc1cccc(O)c1` [Compound 3, 2-(2-(tert-butyl)phenoxy)-N-(3-hydroxyphenyl)acetamide], the “Relative activation of NAMPT activity” value in experiment [1] is −0.1895.
For `CC(C)(C)c1cc(O)ccc1OCC(=O)Nc1ccc(O)cc1` [Compound 52], in experiment [1], the “Relative activation of NAMPT activity” value was found to be 1.488. Moreover, in experiment [2], the Relative cytoprotective activity is 1.358.
`CC(C)(C)c1cccc(Br)c1OCC(=O)Nc1ccc(O)cc1` [Compound 59, 2-(2-bromo-6-(tert-butyl)phenoxy)-N-(4-hydroxyphenyl)acetamide] had a Relative cytoprotective activity in experiment [2] of 0.5085.
Regarding `COc1ccc(OCC(=O)Nc2ccc(O)cc2)c(C(C)(C)C)c1` [Compound 51], the “Relative activation of NAMPT activity” value in experiment [1] amounted to 1.382. This compound came in with a Relative cytoprotective activity in experiment [2] of 1.402.
In the case of `CC(C)(C)c1ccccc1CNC(=O)Nc1ccc(O)cc1` [Compound 25, 1-(2-tert-butyl)benzyl-3-(4-hydroxyl)phenylurea], in experiment [1], the “Relative activation of NAMPT activity” value is on record as −0.2226.
For `CC(C)c1ccccc1OCC(=O)Nc1ccc(O)cc1` [Compound 24, N-(4-hydroxyphenyl)-2-(2-isopropylphenoxy)acetamide], in experiment [1], the “Relative activation of NAMPT activity” value was determined as 1.35. The compound further registered a Relative cytoprotective activity in experiment [2] of 0.5447.
Turning to `CN(C)c1ccc(NC(=O)COc2ccccc2C(C)(C)C)cc1` [Compound 7, 2-(2-(tert-butyl)phenoxy)-N-(4-(dimethylamino)phenyl)acetamide], in experiment [1], the “Relative activation of NAMPT activity” value is −0.1777.
On the same count and under the same terms, the value for `CC(C)(C)c1ccccc1OCC(=O)Nc1ccc(C#N)cc1` [Compound 32, 2-(2-(tert-butyl)phenoxy)-N-(4-cyanophenyl)acetamide] was −0.2396; that for `CC(C)(C)c1ccccc1OCC(=O)Nc1ccc(N)cc1` [Compound 30, N-(4-aminophenyl)-2-(2-(tert-butyl)phenoxy)acetamide] was 0.8075.
The same measure, in the same setting: with `CC(C)(C)c1ccccc1OCC(=O)Nc1ccc(O)c(CO)c1` [Compound 47, 2-(2-(tert-butyl)phenoxy)-N-(4-hydroxyl-3-(hydroxymethyl)phenyl)acetamide] the figure was −0.1983.
Consider `CC(C)(C)c1cccc(CNC(=O)Nc2ccc(O)cc2)c1` [Compound 20, 1-(3-tert-butyl)benzyl-3-(4-hydroxyl)phenylurea], for which, in experiment [1], the “Relative activation of NAMPT activity” value is on record as −0.1622. For the same compound, the Relative cytoprotective activity in experiment [2] stood at 0.135.
As to `Cc1cccc(OCC(=O)Nc2ccc(O)cc2)c1` [Compound 19, N-(4-hydroxyphenyl)-2-(m-tolyloxy)acetamide], in experiment [1], the “Relative activation of NAMPT activity” value was found to be 0.1507. In experiment [2], this compound returned a Relative cytoprotective activity of 0.09517.
On to `CC(C)(C)c1ccccc1OCC(=O)Nc1ccc(O)cc1F` [Compound 40, 2-(2-(tert-butyl)phenoxy)-N-(2-fluoro-4-hydroxyphenyl)acetamide], for which, in experiment [1], the “Relative activation of NAMPT activity” value is listed as 0.03898. The compound further gave a Relative cytoprotective activity in experiment [2] of 0.1859.
In the case of `CC(C)(C)c1ccc(C(=O)O)cc1OCC(=O)Nc1ccc(O)cc1` [Compound 64], the “Relative activation of NAMPT activity” value in experiment [1] is −0.0799. The same compound returned a Relative cytoprotective activity in experiment [2] of 0.2131.
In the case of `CC(C)(C)c1ccccc1OCC(=O)Nc1ccc(O)cc1CO` [Compound 50, 2-(2-(tert-butyl)phenoxy)-N-(4-hydroxyl-2-(hydroxymethyl)phenyl)acetamide], in experiment [1], the “Relative activation of NAMPT activity” value was −0.1356.
The same measure, in the same setting: the value for `CC(C)(C)c1ccccc1OCC(=O)Nc1ccc(CO)cc1` [Compound 28, 2-(2-(tert-butyl)phenoxy)-N-(4-(hydroxymethyl)phenyl)acetamide] was −0.2198.
Same read-out and setting: the value for `CC(C)(C)c1ccccc1OCC(=O)Nc1ccc(S)cc1` [Compound 34, 2-(2-(tert-butyl)phenoxy)-N-(4-mercaptophenyl)acetamide] was −0.096; that for `CC(C)(C)c1ccccc1OCC(=O)Nc1ccc(B(O)O)cc1` [Compound 27] was 0.1217.
Turning to `CC(C)(C)c1cc(Br)cc(Br)c1OCC(=O)Nc1ccc(O)cc1` [Compound 60, 2-(2,4-dibromo-6-(tert-butyl)phenoxy)-N-(4-hydroxyphenyl)acetamide], the “Relative activation of NAMPT activity” value in experiment [1] is reported as 0.02456.
For `CCc1ccc(OCC(=O)Nc2ccc(O)cc2)c(C(C)(C)C)c1` [Compound 54, 2-(2-(tert-butyl)-4-ethylphenoxy)-N-(4-hydroxyphenyl)acetamide], the Relative cytoprotective activity in experiment [2] was 0.8554.
Turning to `CC(C)(C)c1ccccc1OCC(=O)Nc1ccc(O)c(C(F)(F)F)c1` [Compound 39, 2-(2-(tert-butyl)phenoxy)-N-(4-hydroxyl-3-(trifluoromethyl)phenyl)acetamide], the “Relative activation of NAMPT activity” value in experiment [1] is listed as −0.1435.
Take `CC(C)(C)c1ccccc1OCC(=O)Nc1ccc(O)cc1O` [Compound 48, 2-(2-(tert-butyl)phenoxy)-N-(2,4-dihydroxyphenyl)acetamide]: the “Relative activation of NAMPT activity” value in experiment [1] is −0.1608.
As for `CC(C)(C)c1ccccc1OCC(=O)Nc1ccc(Cl)cc1` [Compound 8, 2-(2-(tert-butyl)phenoxy)-N-(4-chlorophenyl)acetamide], the “Relative activation of NAMPT activity” value in experiment [1] is reported as −0.1983.
